Data reported in ChEMBL document CHEMBL2321802, “Identification of Potent and Selective Diphenylpropanamide RORγ Inhibitors” (ACS Med Chem Lett, 2013).
The source made the active and inactive calls. The rule behind the calls is not given here.

Experiments:
[1] = molecular target: T1, Probable nuclear hormone receptor HR3 (Drosophila melanogaster) (UniProt P31396); assay: Antagonist activity at Drosophila melanogaster transactivation domain of DHR3 expressed in Drosophila Schneider cells co-expressing Gal4-DNA binding domain up to 96 uM; type: cell-based; settings: Schneider 2
T1 sequence (whole entry): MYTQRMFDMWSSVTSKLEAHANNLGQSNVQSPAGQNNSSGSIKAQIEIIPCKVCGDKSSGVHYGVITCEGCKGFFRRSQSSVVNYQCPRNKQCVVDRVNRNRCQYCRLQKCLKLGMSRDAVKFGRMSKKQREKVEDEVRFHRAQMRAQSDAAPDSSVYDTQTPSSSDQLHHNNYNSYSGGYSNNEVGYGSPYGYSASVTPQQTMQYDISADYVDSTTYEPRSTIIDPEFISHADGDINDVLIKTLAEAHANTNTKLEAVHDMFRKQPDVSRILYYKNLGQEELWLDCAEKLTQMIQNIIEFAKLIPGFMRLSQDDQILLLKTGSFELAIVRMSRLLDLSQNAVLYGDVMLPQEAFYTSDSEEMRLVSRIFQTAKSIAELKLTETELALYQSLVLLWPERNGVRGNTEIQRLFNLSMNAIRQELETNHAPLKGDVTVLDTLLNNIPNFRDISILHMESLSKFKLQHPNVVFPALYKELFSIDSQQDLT

[2] = Cytotoxicity against human Th17 cells up to 96 uM; type: cell-based
Schneider 2 = assay: Antagonist activity at HSV transactivation domain of VP16 expressed in Drosophila Schneider cells co-expressing Gal4-DNA binding domain up to 96 uM; type: cell-based; settings: Human alphaherpesvirus 1
[3] = molecular target: T2, Nuclear receptor ROR-alpha (Homo sapiens) (UniProt P35398); assay: Antagonist activity at transactivation domain of RORalpha (unknown origin) expressed in Drosophila Schneider cells co-expressing Gal4-DNA binding domain up to 96 uM; type: cell-based; settings: Schneider 2
T2 sequence (whole entry): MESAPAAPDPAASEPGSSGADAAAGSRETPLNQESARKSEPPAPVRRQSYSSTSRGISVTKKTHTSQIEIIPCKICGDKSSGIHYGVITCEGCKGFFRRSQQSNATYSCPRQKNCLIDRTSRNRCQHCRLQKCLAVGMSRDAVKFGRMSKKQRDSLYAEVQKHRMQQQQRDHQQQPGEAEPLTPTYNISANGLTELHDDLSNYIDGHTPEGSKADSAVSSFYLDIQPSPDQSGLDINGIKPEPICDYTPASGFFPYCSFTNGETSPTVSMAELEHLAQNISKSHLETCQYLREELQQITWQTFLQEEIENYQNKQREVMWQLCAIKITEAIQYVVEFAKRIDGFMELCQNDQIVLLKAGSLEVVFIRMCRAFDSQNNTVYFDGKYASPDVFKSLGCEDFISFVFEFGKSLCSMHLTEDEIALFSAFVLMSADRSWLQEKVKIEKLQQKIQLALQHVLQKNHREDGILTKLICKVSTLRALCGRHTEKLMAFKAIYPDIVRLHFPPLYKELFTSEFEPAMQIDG

[4] = molecular target: T3, Nuclear receptor ROR-gamma (Homo sapiens, UniProt P51449); assay: Antagonist activity at transactivation domain of RORgammat (unknown origin) expressed in Drosophila Schneider cells co-expressing Gal4-DNA binding domain; type: cell-based, Schneider 2
T3 sequence (P51449 whole entry): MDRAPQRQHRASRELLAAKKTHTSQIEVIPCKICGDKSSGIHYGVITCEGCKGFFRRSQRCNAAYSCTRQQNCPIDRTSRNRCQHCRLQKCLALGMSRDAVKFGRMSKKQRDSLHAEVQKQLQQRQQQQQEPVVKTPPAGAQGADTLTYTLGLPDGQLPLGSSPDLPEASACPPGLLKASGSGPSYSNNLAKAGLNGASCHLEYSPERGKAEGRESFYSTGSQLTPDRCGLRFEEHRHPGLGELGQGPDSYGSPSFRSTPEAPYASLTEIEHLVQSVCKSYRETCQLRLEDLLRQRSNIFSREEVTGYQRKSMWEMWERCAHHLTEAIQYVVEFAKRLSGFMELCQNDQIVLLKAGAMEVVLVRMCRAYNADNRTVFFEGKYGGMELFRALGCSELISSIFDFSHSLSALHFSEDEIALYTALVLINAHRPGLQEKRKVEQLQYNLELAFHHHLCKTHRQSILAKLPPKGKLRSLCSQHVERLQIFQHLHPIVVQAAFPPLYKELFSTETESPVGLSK

Row | inhibition [1] | inhibition [3] | IC50 ([4]; read-out: IC50) | IC50 ([4]; schneider 2) | Compound | Activity [2] | inhibition (Schneider 2)
1 | inactive | inactive | 3.3 µM | – | COc1cc(O)c(C(CC(=O)N2CCCC(C)C2)c2ccc3c(c2)OCO3)c(OC)c1 (mixture of isomers) | Non-toxic | inactive
2 | inactive | inactive | 15.7 µM | – | COc1cc(O)c(C(CC(=O)N2CCCCC2)c2ccc3c(c2)OCO3)c(OC)c1 (stereo unspecified) | Non-toxic | inactive
3 | inactive | inactive | – | – | COc1cc(O)c(C(CC(=O)N2CCCCCC2)c2ccc3c(c2)OCO3)c(OC)c1 (stereo unspecified) | Non-toxic | inactive
4 | inactive | inactive | – | – | COc1ccc(C(CC(=O)N2C[C@H](C)C[C@H](C)C2)c2c(O)cc(OC)cc2OC)cc1 (stereo partly specified) | Non-toxic | inactive
5 | inactive | inactive | – | – | COc1cc(O)c(C(CC(=O)N2C[C@H](C)C[C@H](C)C2)c2ccc(C)cc2)c(OC)c1 (stereo partly specified) | Non-toxic | inactive
6 | inactive | inactive | – | – | COc1cc(O)c(C(CC(=O)N2CCCCC2C)c2ccc3c(c2)OCO3)c(OC)c1 (mixture of isomers) | Non-toxic | inactive
7 | inactive | inactive | > 50 µM | – | COc1cc(O)c(C(CC(=O)N2CCCC2)c2ccc3c(c2)OCO3)c(OC)c1 (stereo unspecified) | Non-toxic | inactive
8 | inactive | inactive | – | Not Active | COc1cc(O)c(C(CC(=O)N2C[C@@H](C)N[C@@H](C)C2)c2ccc3c(c2)OCO3)c(OC)c1 (stereo partly specified) | Non-toxic | inactive
9 | inactive | inactive | > 50 µM | – | COc1cc(O)c(C(CC(=O)Nc2ccc(C)cc2)c2ccc3c(c2)OCO3)c(OC)c1 (stereo unspecified) | Non-toxic | inactive
10 | inactive | inactive | – | – | COc1cccc(O)c1C(CC(=O)N1CCCC(C)C1)c1ccc2c(c1)OCO2 (mixture of isomers) | Non-toxic | inactive
11 | inactive | inactive | – | Not Active | COc1cc(O)c(C(CC(=O)N2CCOCC2)c2ccc3c(c2)OCO3)c(OC)c1 (stereo unspecified) | Non-toxic | inactive
12 | inactive | inactive | – | – | COc1cc(O)c(C(CC(=O)N2C[C@H](C)C[C@H](C)C2)c2ccc(C(F)(F)F)cc2)c(OC)c1 (stereo partly specified) | Non-toxic | inactive
13 | inactive | inactive | – | – | CCCCNC(=O)CC(c1ccc2c(c1)OCO2)c1c(O)cc(OC)cc1OC (stereo unspecified) | Non-toxic | inactive
14 | inactive | inactive | – | – | COc1cc(O)c(C(CC(=O)N2C[C@@H](C)O[C@@H](C)C2)c2ccc3c(c2)OCO3)c(OC)c1 (stereo partly specified) | Non-toxic | inactive

The remaining lines, values behind:

Row | Compound | inhibition [1] | inhibition [3] | IC50 ([4]; read-out: IC50) | IC50 ([4]; schneider 2) | Activity [2] | inhibition (Schneider 2)
15 | CC1CCCN(C(=O)CC(c2ccc3c(c2)OCO3)c2cc(-c3ccccc3)ccc2O)C1 (mixture of isomers) | inactive | inactive | – | – | Non-toxic | inactive
16 | COc1cc(O)c(C(CC(=O)N2C[C@H](C)C[C@H](C)C2)c2ccc(Cl)cc2)c(OC)c1 (stereo partly specified) | inactive | inactive | – | – | Non-toxic | inactive
17 | COc1ccc(C(CC(=O)N2CCCC(C)C2)c2c(O)cc(OC)cc2OC)cc1 (mixture of isomers) | inactive | inactive | 2.5 µM | – | Non-toxic | inactive
18 | COc1cc(OC)c(C(CC(=O)N2CCCC(C)C2)c2ccc3c(c2)OCO3)c(OC)c1 (mixture of isomers) | inactive | inactive | – | – | Non-toxic | inactive
19 | COc1cccc(C(CC(=O)N2C[C@H](C)C[C@H](C)C2)c2c(O)cc(OC)cc2OC)c1 (stereo partly specified) | inactive | inactive | – | – | Non-toxic | inactive
20 | COc1cc(O)c(C(CC(=O)N2CCC(C)CC2)c2ccc3c(c2)OCO3)c(OC)c1 (stereo unspecified) | inactive | inactive | – | – | Non-toxic | inactive
21 | COc1cc(O)c(C(CC(=O)N2CCCC(C)(C)C2)c2ccc3c(c2)OCO3)c(OC)c1 (stereo unspecified) | inactive | inactive | – | – | Non-toxic | inactive
22 | C[C@H]1O[C@@H](O[C@H]2[C@@H](O)C[C@H](O[C@H]3[C@@H](O)C[C@H](O[C@H]4CC[C@@]5(C)[C@H](CC[C@@H]6[C@@H]5C[C@@H](O)[C@]5(C)[C@@H](C7=CC(=O)OC7)CC[C@]65O)C4)O[C@@H]3C)O[C@@H]2C)C[C@H](O)[C@@H]1O [DIGOXIN] | – | – | 2 µM | – | – | –
23 | CCN(CC)C(=O)CC(c1ccc2c(c1)OCO2)c1c(O)cc(OC)cc1OC (stereo unspecified) | inactive | inactive | > 50 µM | – | Non-toxic | inactive
24 | COc1ccc(C(CC(=O)N2CCCC(C)C2)c2ccc3c(c2)OCO3)c(O)c1 (mixture of isomers) | inactive | inactive | – | – | Non-toxic | inactive
